Laboratory results from ChEMBL document CHEMBL1136562, “Structure-activity relationships of substituted benzothiophene-anthranilamide factor Xa inhibitors” (Bioorg Med Chem Lett, 2003).

Key:
Coagulation factor X = Coagulation factor X (Homo sapiens, UniProt P00742); experiment: Inhibition constant against human factor Xa; settings: read-out: Ki app
Prothrombin = Prothrombin (Homo sapiens, UniProt P00734); experiment: Inhibition constant against human thrombin; settings: read-out: Ki app
[1] = target: Cationic trypsin (Bos taurus); experiment: Inhibition constant against bovine trypsin

Coagulation factor X, sequence (P00742 41-179 limits assumed): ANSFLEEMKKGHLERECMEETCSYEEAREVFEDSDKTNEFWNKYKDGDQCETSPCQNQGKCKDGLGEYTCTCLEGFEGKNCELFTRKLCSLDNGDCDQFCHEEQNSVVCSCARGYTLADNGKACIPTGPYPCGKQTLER
Coagulation factor X, sequence (P00742 235-488 limits assumed): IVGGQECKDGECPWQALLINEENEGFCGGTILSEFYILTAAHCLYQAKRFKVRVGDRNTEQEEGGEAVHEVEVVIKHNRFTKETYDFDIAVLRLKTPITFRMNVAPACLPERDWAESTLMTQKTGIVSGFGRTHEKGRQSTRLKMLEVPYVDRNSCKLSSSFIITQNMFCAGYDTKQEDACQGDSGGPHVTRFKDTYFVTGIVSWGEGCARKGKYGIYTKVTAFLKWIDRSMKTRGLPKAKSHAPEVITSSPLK

| Ki (Coagulation factor X) [µM] | Ki (Prothrombin) [µM] | Ki app [1] [µM] | SMILES |
| --- | --- | --- | --- |
| 0.0072 | > 5 | > 5 | Cc1ccc(C(=O)Nc2ccc(Cl)cc2)c(NC(=O)c2sc3ccccc3c2Cl)c1 |
| 0.15 | > 5 | – | Cc1ccc(NC(=O)c2sc3ccccc3c2Cl)c(C(=O)Nc2ccc(C#N)cc2)c1 |
| 0.26 | > 5 | > 5 | Cc1ccc(NC(=O)c2sc3ccccc3c2Cl)c(C(=O)Nc2cccc(Cl)c2)c1 |
| 0.16 | > 5 | > 5 | COc1ccsc1C(=O)Nc1ccc(C)cc1C(=O)Nc1ccc(Cl)cc1 |
| – | > 5 | – | Cc1ccc(NC(=O)c2sc3ccccc3c2Cl)c(C(=O)Nc2ccc(F)cc2)c1 |
| 0.058 | > 5 | > 5 | Cc1cccc(C(=O)Nc2ccc(Cl)cc2)c1NC(=O)c1sc2ccccc2c1Cl |
| 0.078 | > 5 | > 5 | Cc1ccc(NC(=O)c2ccc3ccccc3c2)c(C(=O)Nc2ccc(Cl)cc2)c1 |
| 0.024 | > 5 | > 5 | O=C(Nc1ccc(Cl)cc1)c1cccc(Cl)c1NC(=O)c1sc2ccccc2c1Cl |
| 0.21 | > 5 | > 5 | Cc1ccc(NC(=O)c2sc3ccccc3c2Cl)c(C(=O)Nc2cccnc2)c1 |
| 0.0022 | > 5 | > 5 | COc1cc(Cl)cc(C(=O)Nc2ccc(Cl)cc2)c1NC(=O)c1sc2ccccc2c1Cl |
| 1.4 | > 5 | > 5 | Cc1ccc(NC(=O)c2sc3ccccc3c2Cl)c(C(=O)Nc2ccc(CN)cc2)c1 |
| > 5 | > 5 | > 5 | Cc1ccc(NC(=O)c2sc3ccccc3c2Cl)c(C(=O)Nc2ccc(C(F)(F)F)cc2)c1 |
| 0.016 | > 5 | > 5 | Nc1ccc(NC(=O)c2sc3ccccc3c2Cl)c(C(=O)Nc2ccc(Cl)cc2)c1 |
| 0.0071 | > 5 | > 5 | Cc1ccc(NC(=O)c2cc(C)ccc2NC(=O)c2sc3ccccc3c2Cl)cc1 |
| > 0.5 | > 5 | – | O=C(Nc1ccc(Cl)cc1)c1cc([N+](=O)[O-])ccc1NC(=O)c1sc2ccccc2c1Cl |
| > 5 | > 5 | > 5 | CSc1ncc(Cl)c(C(=O)Nc2ccc(C)cc2C(=O)Nc2ccc(Cl)cc2)n1 |
| 0.073 | > 5 | > 5 | O=C(Nc1ccc(Cl)cc1)c1cc(O)ccc1NC(=O)c1sc2ccccc2c1Cl |
| 0.019 | > 5 | > 5 | Cc1ccc(NC(=O)c2sc3ccccc3c2Cl)c(C(=O)Nc2ccccc2)c1 |
| 4.7 | > 5 | > 5 | Cc1ccc(NC(=O)c2sc3ccccc3c2Cl)c(C(=O)Nc2ccc(C(=O)O)cc2)c1 |
| 0.007 | > 5 | > 5 | O=C(Nc1ccc(Cl)cc1)c1ccccc1NC(=O)c1sc2ccccc2c1Cl |

| Ki (Coagulation factor X) [µM] | Ki (Prothrombin) [µM] | Ki app [1] [µM] | SMILES |
| --- | --- | --- | --- |
| 0.015 | > 5 | – | O=C(Nc1ccc(Cl)cc1)c1ccc(F)cc1NC(=O)c1sc2ccccc2c1Cl |
| 0.026 | > 5 | – | O=C(Nc1ccc(Cl)cc1)c1ccc(Cl)cc1NC(=O)c1sc2ccccc2c1Cl |
| – | > 5 | – | Cc1ccc(NC(=O)c2sc3ccccc3c2Cl)c(C(=O)Nc2ccc(Cl)cc2)c1 |
| 0.0023 | > 5 | > 5 | Cc1ccc(NC(=O)c2sc3ccccc3c2Cl)c(C(=O)Nc2ccc(Cl)cn2)c1 |
| > 5 | > 5 | > 5 | O=C(Nc1ccc(Cl)cc1)c1cc(N2CCCC2)ccc1NC(=O)c1sc2ccccc2c1Cl |
| > 5 | > 5 | > 5 | COC(=O)c1ccc(NC(=O)c2cc(C)ccc2NC(=O)c2sc3ccccc3c2Cl)cc1 |
| 0.005 | > 5 | – | O=C(Nc1ccc(Cl)cc1)c1cc(F)ccc1NC(=O)c1sc2ccccc2c1Cl |
| > 5 | > 5 | > 5 | Cc1cccc(NC(=O)c2sc3ccccc3c2Cl)c1C(=O)Nc1ccc(Cl)cc1 |
| 0.026 | > 5 | > 5 | O=C(Nc1cccc(F)c1C(=O)Nc1ccc(Cl)cc1)c1sc2ccccc2c1Cl |
| 0.96 | > 5 | > 5 | Cc1ccc(NC(=O)c2ccccc2Br)c(C(=O)Nc2ccc(Cl)cc2)c1 |
| 0.03 | > 5 | > 5 | Cc1ccc(NC(=O)c2sc3ccccc3c2Cl)c(C(=O)Nc2ccccn2)c1 |
| 0.28 | > 5 | – | Cc1ccc(NC(=O)c2sc3ccccc3c2Cl)c(C(=O)Nc2ccc(N)cc2)c1 |
| 0.47 | > 5 | > 5 | CN1CCN(c2ccc(NC(=O)c3sc4ccccc4c3Cl)c(C(=O)Nc3ccc(Cl)cc3)c2)CC1 |
| 4.4 | > 5 | – | Cc1ccc(NC(=O)c2sc3ccccc3c2O)c(C(=O)Nc2ccc(Cl)cc2)c1 |
| 0.022 | > 5 | > 5 | CCOC(=O)COc1cccc(C(=O)Nc2ccc(Cl)cc2)c1NC(=O)c1sc2ccccc2c1Cl |
| 0.018 | > 5 | – | O=C(Nc1ccc(Cl)cc1)c1cccc(O)c1NC(=O)c1sc2ccccc2c1Cl |
| > 5 | > 5 | > 5 | Cc1ccc(NC(=O)c2cccnc2C)c(C(=O)Nc2ccc(Cl)cc2)c1 |
| > 5 | > 5 | > 5 | CCOc1ccc(NC(=O)c2cc(C)ccc2NC(=O)c2sc3ccccc3c2Cl)cc1 |
| 0.21 | > 5 | – | Cc1ccc(NC(=O)c2sc(C)nc2C)c(C(=O)Nc2ccc(Cl)cc2)c1 |
| 0.0006 | > 5 | > 5 | O=C(Nc1ccc(Cl)cc1)c1cc(Cl)ccc1NC(=O)c1sc2ccccc2c1Cl |

| Ki (Coagulation factor X) [µM] | Ki (Prothrombin) [µM] | Ki app [1] [µM] | SMILES |
| --- | --- | --- | --- |
| 0.00046 | > 5 | – | Cc1ccc(NC(=O)c2sc3ccccc3c2Cl)c(C(=O)Nc2ccc(Br)cc2)c1 |
| 0.0059 | > 5 | > 5 | COc1c(C(=O)Nc2ccc(C)cc2C(=O)Nc2ccc(Cl)cc2)sc2ccccc12 |
| 0.054 | > 5 | – | COc1c(Br)csc1C(=O)Nc1ccc(C)cc1C(=O)Nc1ccc(Cl)cc1 |
| 0.59 | > 5 | – | Cc1ccc(NC(=O)c2cc3ccccc3s2)c(C(=O)Nc2ccc(F)cc2)c1 |
| 0.011 | > 5 | > 5 | Cc1cc(NC(=O)c2sc3ccccc3c2Cl)c(C(=O)Nc2ccc(Cl)cc2)cc1Cl |
| 0.022 | > 5 | – | COc1cccc(C(=O)Nc2ccc(Cl)cc2)c1NC(=O)c1sc2ccccc2c1Cl |
| 0.13 | > 5 | – | Cc1ccc(NC(=O)c2sccc2Cl)c(C(=O)Nc2ccc(Cl)cc2)c1 |
| > 5 | > 5 | > 5 | O=C(Nc1cccc(Cl)c1C(=O)Nc1ccc(Cl)cc1)c1sc2ccccc2c1Cl |
| 0.025 | > 5 | > 5 | Cc1ccc(NC(=O)c2sc3ccccc3c2C)c(C(=O)Nc2ccc(F)cc2)c1 |
| 0.007 | > 5 | – | O=C(Nc1ccc(Cl)cc1)c1cc(Cl)c(F)cc1NC(=O)c1sc2ccccc2c1Cl |
| 0.0018 | > 5 | – | Cc1cc(Cl)cc(C(=O)Nc2ccc(Cl)cc2)c1NC(=O)c1sc2ccccc2c1Cl |
| 0.0037 | > 5 | – | O=C(Nc1ccc(Cl)cc1)c1cc(Cl)cc(O)c1NC(=O)c1sc2ccccc2c1Cl |
| > 5 | > 5 | > 5 | COc1ccc(COc2ccc(NC(=O)c3sc4ccccc4c3Cl)c(C(=O)Nc3ccc(Cl)cc3)c2)cc1 |
| > 5 | > 5 | – | Cc1ccc(NC(=O)c2sc3ccccc3c2Cl)c(C(=O)Nc2ccccc2Cl)c1 |
| 0.016 | > 5 | > 5 | COc1ccc(NC(=O)c2cc(C)ccc2NC(=O)c2sc3ccccc3c2Cl)cc1 |
| 0.014 | > 5 | > 5 | Cc1ccc(NC(=O)c2scc(S(C)(=O)=O)c2Cl)c(C(=O)Nc2ccc(Cl)cc2)c1 |
| 0.1 | > 5 | > 5 | O=C(Nc1ccc(Cl)cc1)c1ccc(C(F)(F)F)cc1NC(=O)c1sc2ccccc2c1Cl |
| 0.39 | > 5 | > 5 | Cc1ccc(NC(=O)c2sccc2Cl)c(C(=O)Nc2ccc(F)cc2)c1 |
| > 5 | > 5 | > 5 | Cc1ccc(NC(=O)c2sc3ccccc3c2Cl)c(C(=O)Nc2nccs2)c1 |
